Laboratory results as given in patent publication US10617671B2, “Use of NK-1 receptor antagonist serlopitant in pruritus” (Menlo Therapeutics Inc., priority 2013, dated 2020).

Key:
[1] = tested on: patients with liver and kidney disease; conditions: cited from earlier work
CYP2C9 = CYP2C9 (Homo sapiens, UniProt P11712); conditions: cited from earlier work
[2] = tested on: patients suffering from chronic pruritus; conditions: single topical dose, 5% in a lipophilic vehicle; cited from earlier work
[3] = tested on: patients with chronic pruritus; design: patients with considerable reduction in itch intensity: unit not given here; conditions: 80 mg daily for 3 to 13 days, cited from earlier work
[4] = tested on: patients with Sézary syndrome; conditions: oral, 80 mg daily, three patients with Sézary syndrome; cited from earlier work
CYP3A4 = CYP3A4 (Homo sapiens, UniProt P08684); conditions: cited from earlier work
Chain of CYP3A4 (P08684 whole entry): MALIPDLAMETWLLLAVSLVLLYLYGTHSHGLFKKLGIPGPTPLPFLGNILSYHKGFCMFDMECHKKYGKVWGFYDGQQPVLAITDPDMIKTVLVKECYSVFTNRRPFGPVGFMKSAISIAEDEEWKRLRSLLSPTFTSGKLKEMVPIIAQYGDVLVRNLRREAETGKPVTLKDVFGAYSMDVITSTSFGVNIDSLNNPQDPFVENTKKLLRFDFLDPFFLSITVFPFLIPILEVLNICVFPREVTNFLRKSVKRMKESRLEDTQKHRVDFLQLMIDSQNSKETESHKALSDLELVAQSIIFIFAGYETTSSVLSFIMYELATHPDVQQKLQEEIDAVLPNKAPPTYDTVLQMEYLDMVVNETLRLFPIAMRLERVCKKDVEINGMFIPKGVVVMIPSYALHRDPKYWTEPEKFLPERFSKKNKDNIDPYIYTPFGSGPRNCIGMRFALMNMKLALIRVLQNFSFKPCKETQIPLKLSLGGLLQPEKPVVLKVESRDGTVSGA

[5] = itch; cited from earlier work
NCNga mice = conditions: picrylchloride-induced dermatitis; cited from earlier work
human NK-1 receptor = human NK-1 receptor (Homo sapiens, UniProt P25103); conditions: cited from earlier work
Chain of human NK-1 receptor (P25103 whole entry): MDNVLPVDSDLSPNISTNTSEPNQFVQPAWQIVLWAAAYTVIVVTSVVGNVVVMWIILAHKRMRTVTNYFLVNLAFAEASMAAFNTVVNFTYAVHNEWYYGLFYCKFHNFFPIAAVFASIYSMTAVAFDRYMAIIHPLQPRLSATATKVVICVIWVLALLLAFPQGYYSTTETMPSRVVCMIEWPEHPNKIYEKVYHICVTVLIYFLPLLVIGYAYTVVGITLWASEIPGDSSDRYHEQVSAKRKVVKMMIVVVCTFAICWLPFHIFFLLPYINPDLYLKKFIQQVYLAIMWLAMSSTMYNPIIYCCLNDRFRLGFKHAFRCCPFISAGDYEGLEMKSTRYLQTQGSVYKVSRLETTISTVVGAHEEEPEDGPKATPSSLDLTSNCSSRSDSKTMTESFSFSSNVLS

patients with OAB = conditions: cited from earlier work
[6] = Solubility of Compound 1 in solvents; format: physicochemical
Excerpt: S-BTBA ((S)-1-[3,5-bis(trifluoromethyl)] phenylethanol)) (12) is reacted with trichloroacetonitrile (Sigma-Aldrich) in the presence of base 1,8-diazabicycloundec-7-ene (DBU) to produce imidate (13). HBF4 is used to catalyze the reaction of (11) with (13) to yield ether (14). Treatment with allylamine and bis-propylsulfonate cyclizes (14) to allylamine-protected pyrrolidine (15). Removal of the allyl protecting group with thiosalicylic acid and 1,4-bis(diphenylphosphino)butane (dppb), followed by […] (Pd2(dba)3) and isolation with acetic acid gives crystalline (16). Finally, (16) is reacted with 1,3-cyclopentanedione (Sigma-Aldrich) in isopropyl alcohol to give Compound 1. Compound 1 is a white to off-white powder.

[7] = In vitro skin permeation, Franz diffusion cell; format: in vitro ADME; conditions: topical formulations B and C, LC-MS/MS, human skin, 37° C.
Description: In vitro skin permeation of serlopitant in topical formulations A-D was evaluated using a Franz diffusion cell. FIG. 2 illustrates a Franz diffusion cell. A Franz diffusion cell having a circular permeation area of 4.15 cm^2 and a receptor chamber volume of 19 mL was set up with a thermo-regulated outer water jacket to maintain the temperature at 37° C. The receptor chamber was filled with 19 mL 1×PBS (pH 7.5) containing 10% ethanol and 1% Tween® 80.
Human skin was pretreated to remove all subcutaneous fat and was cleaned with 70% ethanol before use. The skin was visually inspected to ensure that it was free of any surface irregularity or small holes and was equally divided into four pieces. The skin was then mounted onto the receptor chamber with the stratum corneum side facing up. About 100 mg of topical formulation A, B, C or D was applied to the skin (actual weight: A, 103.8 mg; B, 101.3 mg; C, 103.2 mg; and D, 103.8 mg), which was then covered with parafilm to avoid evaporation. […]
All samples were processed by solid-phase extraction (SPE) before LC-MS/MS analysis. […] Serlopitant concentrations in samples resulting from formulations A-D were determined by comparison to the standard. Serlopitant was not detected in samples resulting from topical formulations A and D, as expected. […] After an initial lag, serlopitant was detected by LC-MS/MS in the receptor chamber at 6 hours.

CYP-3A4 mRNA = conditions: three individual preparations of human hepatocytes; cited from earlier work
[8] = Solubility test in Franz cell receptor solution; format: physicochemical
[9] = tested on: cloned human NK-2 and NK-3 receptors; conditions: CHO cells stably expressing the respective receptors; cited from earlier work

Chain of CYP2C9 (P11712 whole entry): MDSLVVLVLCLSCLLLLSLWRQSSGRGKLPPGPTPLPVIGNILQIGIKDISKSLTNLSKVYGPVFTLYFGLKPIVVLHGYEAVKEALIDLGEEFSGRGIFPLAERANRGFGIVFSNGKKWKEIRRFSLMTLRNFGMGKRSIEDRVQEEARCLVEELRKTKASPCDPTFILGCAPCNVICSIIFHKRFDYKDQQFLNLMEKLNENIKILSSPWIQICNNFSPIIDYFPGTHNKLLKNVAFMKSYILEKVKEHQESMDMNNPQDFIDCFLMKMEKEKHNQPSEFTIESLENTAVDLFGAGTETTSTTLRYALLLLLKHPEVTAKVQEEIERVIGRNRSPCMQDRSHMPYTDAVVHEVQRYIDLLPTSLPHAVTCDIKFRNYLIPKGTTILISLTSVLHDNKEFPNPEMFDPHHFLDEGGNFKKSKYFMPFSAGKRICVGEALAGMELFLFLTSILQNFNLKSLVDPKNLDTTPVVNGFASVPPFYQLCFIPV

C=C1CC[C@@]2(O)[C@H]3Cc4ccc(O)c5c4[C@@]2(CCN3CC2CC2)[C@H]1O5 [nalmefene]
effect on pruritus symptoms [1]: decreased pruritus symptoms | side effects [1]: significant central nervous and gastrointestinal side effects occurred

C[C@@H](O[C@H]1OCCN(Cc2n[nH]c(=O)[nH]2)[C@H]1c1ccc(F)cc1)c1cc(C(F)(F)F)cc(C(F)(F)F)c1 [aprepitant]
inhibition and induction of CYP2C9 (CYP2C9): moderate inhibitor as well as an inducer | absorption into the skin [2]: absorbed into the skin | effect on patients' itch [2]: not alleviated | effect on chronic pruritus ([3]; atopic diathesis, prurigo nodularis): significantly decreased chronic pruritus | patients with considerable reduction in itch intensity ([3]; twenty patients): Eighty | treatment of pruritus [4]: had utility in treating pruritus | inhibition and induction of CYP3A4 (CYP3A4): moderate inhibitor as well as an inducer

NCC1(CC(=O)O)CCCCC1 [gabapentin]
onset of action [5]: 5-6 weeks

C=CCN1CC[C@]23c4c5ccc(O)c4O[C@H]2C(=O)CC[C@@]3(O)[C@H]1C5 [naloxone]
effect on pruritus symptoms [1]: decreased pruritus symptoms | side effects [1]: significant central nervous and gastrointestinal side effects occurred

O=C1CC[C@@]2(O)[C@H]3Cc4ccc(O)c5c4[C@@]2(CCN3CC2CC2)[C@H]1O5 [naltrexone]
effect on pruritus symptoms [1]: decreased pruritus symptoms | side effects [1]: significant central nervous and gastrointestinal side effects occurred

CN(CCc1cc(C(F)(F)F)cc(C(F)(F)F)c1)C(=O)[C@H](c1ccccc1)N1CCN(CC2CC2)CC1 [BIIF 1149 CL]
scratching behavior (NCNga mice): inhibited scratching behavior

C[C@@H](O[C@H]1CC[C@@H]2CN(C3=CC(=O)CC3)C[C@H]2[C@@H]1c1ccc(F)cc1)c1cc(C(F)(F)F)cc(C(F)(F)F)c1 [Compound 1, 3-[(3aR,4R,5S,7aS)-5-[(1R)-1-[3,5-bis(trifluoromethyl)phenyl]ethoxy]-4-(4-fluorophenyl)-1,3,3a,4,5,6,7,7a-octahydroisoindol-2-yl]cyclopent-2-en-1-one]
IC50 (human NK-1 receptor; read-out: IC50, displacement of substance P binding): 0.061 nM | Kd (human NK-1 receptor; read-out: Kd, binding to the human NK-1 receptor): 0.046 nM | number of daily micturitions compared with placebo (patients with OAB; 0.25 and 4 mg daily): significantly reduced | adverse experience of dry mouth (patients with OAB): not associated | dose response relationship with micturition frequency (patients with OAB): did not show a dose response relationship | drug-related serious adverse experiences (patients with OAB): no drug-related serious adverse experiences | secondary efficacy end points: urinary urgency, urge incontinence and total incontinence (patients with OAB): did not significantly influence | tolerability (patients with OAB): generally well tolerated | solubility ([6]; acetonitrile): sparingly soluble | solubility ([6]; ethanol): soluble | solubility ([6]; ethyl acetate): sparingly soluble | solubility ([6]; isopropyl acetate): slightly soluble | solubility ([6]; isopropyl alcohol): sparingly soluble | solubility ([6]; methanol): freely soluble | solubility ([6]; water): insoluble | time at which serlopitant was detected in the receptor chamber after initial lag [7]: 6 h | induction of CYP-3A4 mRNA (CYP-3A4 mRNA): did not significantly induce | solubility in receptor solution ([8]; 0.5, 5 and 50 ug/mL in 1xPBS (pH 7.5) with 10% ethanol and 1% Tween 80, 1 hour at 37° C.): remained soluble | solubility change if Tween 80 was not used ([8]; 1xPBS (pH 7.5), 37° C.): decreased significantly | solubility change if ethanol was not used ([8]; 1xPBS (pH 7.5), 37° C.): decreased slightly | selectivity for NK-1 over NK-2 and NK-3 receptors [9]: > 39,000 fold

Cc1ccc(O)c([C@H](CCN(C(C)C)C(C)C)c2ccccc2)c1 [tolterodine, reference compound]
adverse experience of dry mouth (patients with OAB): common | efficacy compared with placebo (patients with OAB): statistically significantly more effective | efficacy compared with serlopitant at all efficacy end points (patients with OAB): numerically more effective
